Values belong to the compound of their own block, whether it stands above or below them.
Experiments:
[1] = Pharmacokinetic test in rats; assay type: in vivo, SD rats; details: rat, intragastric administration 3 mg/kg
Protocol: 1.1 Experimental animals: male SD rats, about 220 g, 6-8 weeks old, 6 rats/compound. Purchased from Chengdu Ddossy Experimental Animals Co., Ltd.
1.2 Experimental design: on the day of the experiment, 6 SD rats were randomly grouped according to their body weights. The animals were fasted with water available for 12 to 14 h one day before the administration and were fed 4 h after the administration.
Vehicle for intravenous administration: 5% DMA+5% Solutol+90% Saline; vehicle for intragastric administration: 0.5% MC; control compound INS1007, namely compound 2 in patent WO 2015110826A1, was prepared with reference to the method of the patent.
Before and after the administration, 0.1 ml of blood was taken from the orbit of the animals under isoflurane anesthesia and placed in an EDTAK2 centrifuge tube. The blood was centrifuged at 5000 rpm and 4° C. for 10 min to collect the plasma. Blood sampling time points for the intravenous administration group: 0, 5 min, 15 min, 30 min, 1 h, 2 h, 4 h, 6 h, 8 h, and 24 h; and blood sampling time points for the intragastric administration group: 0, 5 min, 15 min, 30 min, 1 h, 2 h, 4 h, 6 h, 8 h, and 24 h. Before analysis and detection, all samples were stored at −80° C.

[2] = Hygroscopicity by dynamic vapor sorption (DVS); assay type: physicochemical; details: 25° C./80% RH
Protocol: The hygroscopicity of the crystal forms B and C was evaluated by a dynamic vapor sorption (DVS) instrument. The test collected the percentage change in the mass of the samples when the humidity changed (60% RH-95% RH-0% RH-95% RH or 0% RH-95% RH-0% RH) at a constant temperature of 25° C., wherein for the crystal form C, the test started at ambient humidity (about 60% RH), and for the crystal form B, the test started at 0% relative humidity (0% RH). The test results are shown in FIGS. 12 and 13, respectively.

[3] = Variable-temperature / heating XRPD test; assay type: physicochemical
Protocol: (initial temperature). […] In order to study the TGA weight loss of the crystal form B, a variable-temperature XRPD test was performed. […] (some diffraction peaks shifted at 120° C., and it is speculated that the shift may be caused by lattice expansion at high temperature). Therefore, it is speculated that the free base crystal form B is an anhydrous crystal form.
(peak temperatures). The sample was heated to 120° C. and cooled to room temperature, and then an XRPD test was performed. […] Based on the fact of crystal transformation of the sample upon heating in combination with the stepwise weight loss of the TGA, it is speculated that the crystal form C is a monohydrate.

[4] = Solid stability without protection (XRPD, UPLC); assay type: physicochemical
Protocol: For the compounds used in this experiment, the crystal form B was obtained from Example 3, and the crystal form C was obtained from Example 5
The crystal forms B and C were placed at 25° C./60% RH and 40° C./75% RH without any protection, and then the physical and chemical stabilities thereof were tested by XRPD and UPLC, respectively.

[5] = Stability, accelerated experiment; assay type: physicochemical; details: 40° C.±2° C., 75% RH±5% RH
Protocol: (§1) The compounds used in this experiment were obtained from Example 4. Examination conditions: 40° C.±2° C., 75% RH±5% RH. Packaging: the inner packaging material is a double-layer medicinal low-density polyethylene bag, and the outer packaging material is a polyester/aluminum/polyethylene medicinal composite bag. In particular, the analysis method of purity is as follows: [table]

[6] = Stability, long-term experiment 1; assay type: physicochemical; details: 25° C.±2° C., 60% RH±5% RH
Protocol: as §1, with “25°” for “40°”, “60%” for “75%”

[7] = Stability, long-term experiment 2; assay type: physicochemical; details: 30° C.±2° C., 65% RH±5% RH
Protocol: as §1, with “30°” for “40°”, “65%” for “75%”

[8] = Stability, long-term experiment 3; assay type: physicochemical; details: 2° C.-8° C.
Protocol: as §1, with “2° C.-8° C.” for “40° C.±2° C., 75% RH±5% RH.”

F [1]: 88.1%
SMILES: Cn1c(=O)oc2ccc(-c3ccc(C[C@@H](C#N)NC(=O)[C@@H]4CNCCCO4)cc3)cc21 [INS1007, reference compound]

Moisture sorption [2]: 0.19% | Crystal form change in variable-temperature XRPD ([3]; purged with nitrogen for 20 minutes, heated to 120° C., or cooled to 30° C.): did not change | Crystal form change ([4]; 25° C./60% RH, 1 month): No | Purity ([4]; 25° C./60% RH, 1 month): 99.76 | Crystal form change ([4]; 25° C./60% RH, 1 week): No | Purity ([4]; 25° C./60% RH, 1 week): 99.74 | Purity ([4]; 25° C./60% RH, 3 weeks): 99.74 | Crystal form change ([4]; 40° C./75% RH, 1 month): No | Purity ([4]; 40° C./75% RH, 1 month): 99.63 | Crystal form change ([4]; 40° C./75% RH, 1 week): No | Purity ([4]; 40° C./75% RH, 1 week): 99.65 | Purity ([4]; 40° C./75% RH, 3 weeks): 99.57 | Purity ([4]; initial value): 99.86 | Content ([5]; month 0): 100.5% | Crystal form ([5]; month 0): form B | Moisture ([5]; month 0): 0.2% | Purity ([5]; month 0): 99.93% | Content ([5]; month 1): 100.4% | Crystal form ([5]; month 1): form B | Moisture ([5]; month 1): 0.3% | Purity ([5]; month 1): 99.87% | Content ([5]; month 2): 101.1% | Crystal form ([5]; month 2): form B | Moisture ([5]; month 2): 0.2% | Purity ([5]; month 2): 99.88% | Content ([5]; month 3): 100.1% | Crystal form ([5]; month 3): form B | Moisture ([5]; month 3): 0.2% | Purity ([5]; month 3): 99.87% | Content ([5]; month 6): 101.3% | Crystal form ([5]; month 6): form B | Moisture ([5]; month 6): 0.2% | Purity ([5]; month 6): 99.88% | Content ([6]; month 0): 100.5% | Crystal form ([6]; month 0): form B | Moisture ([6]; month 0): 0.2% | Purity ([6]; month 0): 99.93% | Content ([6]; month 3): 100.6% | Crystal form ([6]; month 3): form B | Moisture ([6]; month 3): 0.3% | Purity ([6]; month 3): 99.87% | Content ([6]; month 6): 100.7% | Crystal form ([6]; month 6): form B | Moisture ([6]; month 6): 0.2% | Purity ([6]; month 6): 99.90% | Content ([6]; month 9): 101.6% | Crystal form ([6]; month 9): form B | Moisture ([6]; month 9): 0.1% | Purity ([6]; month 9): 99.89% | Content ([6]; month 12): 99.5% | Crystal form ([6]; month 12): form B | Moisture ([6]; month 12): 0.2% | Purity ([6]; month 12): 99.88% | Content ([7]; month 0): 100.5% | Crystal form ([7]; month 0): form B | Moisture ([7]; month 0): 0.2% | Purity ([7]; month 0): 99.93% | Content ([7]; month 3): 100.6% | Crystal form ([7]; month 3): form B | Moisture ([7]; month 3): 0.3% | Purity ([7]; month 3): 99.87% | Content ([7]; month 6): 101.6% | Crystal form ([7]; month 6): form B | Moisture ([7]; month 6): 0.2% | Purity ([7]; month 6): 99.90% | Content ([7]; month 9): 100.7% | Crystal form ([7]; month 9): form B | Moisture ([7]; month 9): 0.1% | Purity ([7]; month 9): 99.90% | Content ([7]; month 12): 99.2% | Crystal form ([7]; month 12): form B | Moisture ([7]; month 12): 0.2% | Purity ([7]; month 12): 99.89% | Content ([8]; month 0): 100.5% | Crystal form ([8]; month 0): form B | Moisture ([8]; month 0): 0.2% | Purity ([8]; month 0): 99.93% | Content ([8]; month 3): 100.5% | Crystal form ([8]; month 3): form B | Moisture ([8]; month 3): 0.3% | Purity ([8]; month 3): 99.87% | Content ([8]; month 6): 100.0% | Crystal form ([8]; month 6): form B | Moisture ([8]; month 6): 0.3% | Purity ([8]; month 6): 99.89% | Content ([8]; month 9): 101.6% | Crystal form ([8]; month 9): form B | Moisture ([8]; month 9): 0.2% | Purity ([8]; month 9): 99.89% | Content ([8]; month 12): 101.0% | Crystal form ([8]; month 12): form B | Moisture ([8]; month 12): 0.2% | Purity ([8]; month 12): 99.89%
SMILES: Cn1c(=O)oc2ccc(-c3ccc(C[C@@H](C#N)NC(=O)[C@@H]4CNCCCO4)c(F)c3)cc21 [Crystal form B]

F [1]: >100%
SMILES: Cn1c(=O)oc2ccc(-c3ccc(C[C@@H](C#N)NC(=O)[C@@H]4CNCCCO4)c(F)c3)cc21 [Compound I, (S)—N—((S)-1-cyano-2-(2-fluoro-4-(3-methyl-2-oxo-2,3-dihydrobenzo[d]oxazol-5-yl)phenyl)ethyl)-1,4-oxazepane-2-carboxamide]

Moisture sorption [2]: 0.97% | Crystal form change upon heating (XRPD) ([3]; heated to 120° C. and cooled to room temperature): transformed into the crystal form B | Crystal form change ([4]; 25° C./60% RH, 1 week): No | Purity ([4]; 25° C./60% RH, 1 week): 99.70 | Crystal form change ([4]; 40° C./75% RH, 1 week): No | Purity ([4]; 40° C./75% RH, 1 week): 99.71 | Purity ([4]; initial value): 99.87
SMILES: Cn1c(=O)oc2ccc(-c3ccc(C[C@@H](C#N)NC(=O)[C@@H]4CNCCCO4)c(F)c3)cc21 [Crystal form C]

— patent US20250163036A1, “DIPEPTIDYL PEPTIDASE 1 INHIBITOR POLYMORPH, PREPARATION METHOD AND USE THEREFOR” (HAISCO PHARMACEUTICALS PTE. LTD., priority 2022, published 2025)
